Measured values published in PubChem BioAssay (NCI).
Several values for one entry are separate records, joined by “and”; a condition that tells them apart may be missing. Equal values may be shown once.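 48-hour exposure; five concentrations; linearly interpolated endpoints. GI50 is the concentration that inhibits growth by half. TGI is the concentration that stops growth completely.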

Tests used:
Test in all cases: growth of human tumour cells (NCI), 48 h
786-0 renal = test system: 786-0 renal
A498 renal = test system: A498 renal
A549 NSCLC = test system: A549 NSCLC
BT-549 breast = test system: BT-549 breast
CAKI-1 renal = test system: CAKI-1 renal
CCRF-CEM leukemia = test system: CCRF-CEM leukemia
COLO 205 colon = test system: COLO 205 colon
DU-145 prostate = test system: DU-145 prostate
EKVX NSCLC = test system: EKVX NSCLC
HCC-2998 colon = test system: HCC-2998 colon
HCT-116 colon = test system: HCT-116 colon
HCT-15 colon = test system: HCT-15 colon
HL-60(TB) leukemia = test system: HL-60(TB) leukemia
HOP-62 NSCLC = test system: HOP-62 NSCLC
HOP-92 NSCLC = test system: HOP-92 NSCLC
HS 578T breast = test system: HS 578T breast
HT29 colon = test system: HT29 colon
IGROV1 ovarian = test system: IGROV1 ovarian
K-562 leukemia = test system: K-562 leukemia
KM12 colon = test system: KM12 colon
LOX IMVI melanoma = test system: LOX IMVI melanoma
M14 melanoma = test system: M14 melanoma
MALME-3M melanoma = test system: MALME-3M melanoma
MCF7 breast = test system: MCF7 breast
MDA-MB-231 breast = test system: MDA-MB-231 breast
MDA-MB-435 = test system: MDA-MB-435
MDA-N = test system: MDA-N
MOLT-4 leukemia = test system: MOLT-4 leukemia
NCI-H226 lung = test system: NCI-H226 lung
NCI-H23 lung = test system: NCI-H23 lung
NCI-H460 lung = test system: NCI-H460 lung
NCI-H522 lung = test system: NCI-H522 lung
NCI/ADR-RES ovarian = test system: NCI/ADR-RES ovarian
OVCAR-3 ovarian = test system: OVCAR-3 ovarian
OVCAR-4 ovarian = test system: OVCAR-4 ovarian
OVCAR-5 ovarian = test system: OVCAR-5 ovarian
OVCAR-8 ovarian = test system: OVCAR-8 ovarian
PC-3 prostate = test system: PC-3 prostate
RPMI-8226 leukemia = test system: RPMI-8226 leukemia
RXF 393 renal = test system: RXF 393 renal
SF-268 CNS = test system: SF-268 CNS
SF-295 CNS = test system: SF-295 CNS
SK-MEL-2 melanoma = test system: SK-MEL-2 melanoma
SK-MEL-28 melanoma = test system: SK-MEL-28 melanoma
SK-MEL-5 melanoma = test system: SK-MEL-5 melanoma
SK-OV-3 ovarian = test system: SK-OV-3 ovarian
SN12C renal = test system: SN12C renal
SNB-19 CNS = test system: SNB-19 CNS
SNB-75 CNS = test system: SNB-75 CNS
SR leukemia = test system: SR leukemia
SW-620 colon = test system: SW-620 colon
T-47D breast = test system: T-47D breast
U251 CNS = test system: U251 CNS
UACC-257 melanoma = test system: UACC-257 melanoma
UACC-62 melanoma = test system: UACC-62 melanoma
UO-31 renal = test system: UO-31 renal
ACHN renal = test system: ACHN renal
KM20L2 colon = test system: KM20L2 colon
LXFL 529 NSCLC = test system: LXFL 529 NSCLC
SF-539 CNS = test system: SF-539 CNS
SNB-78 CNS = test system: SNB-78 CNS

Which TGI (786-0 renal) does the source give for `COC(=O)C1OC(O[C@H]2CC[C@]3(C)[C@H]4CC=C5[C@@H]6CC(C)(C)CC[C@]6(C(=O)OC6OCC(O)C(O)C6OC6OC(C)C(OC7OCC(O)C(O)C7O)C(O)C6O)CC[C@@]5(C)[C@]4(C)CC[C@H]3C2(C)C)C(O)C(O)C1O` (stereo not given in full) here?
The TGI was 29.2 µM and 32.4 µM.

And the GI50 (A498 renal)?
Its GI50 is 7.25 µM and 20.7 µM.

And the TGI (A498 renal)?
Its TGI is 20 µM and 35.3 µM.

What about the TGI (A549 NSCLC) of the same compound?
Its TGI is 33 µM and 41 µM.

And the TGI (BT-549 breast)?
Its TGI is 34.1 µM and 33.2 µM.

And the TGI (CAKI-1 renal)?
The TGI was 25.9 µM and 34.9 µM.

And the TGI (CCRF-CEM leukemia)?
Its TGI is 53.5 µM and 47.2 µM.

And the TGI (COLO 205 colon)?
The TGI was 25.8 µM and 30.6 µM.

And the TGI (DU-145 prostate)?
Its TGI is 33.7 µM and 47.8 µM.

What about the TGI (EKVX NSCLC) of the same compound?
Its TGI is 33.7 µM and 32 µM.

What about the TGI (HCC-2998 colon) of the same compound?
Its TGI is 25.4 µM and 29.5 µM.

And the TGI (HCT-116 colon)?
Its TGI is 33.1 µM and 37.5 µM.

What about the TGI (HCT-15 colon) of the same compound?
Its TGI is greater than 100 µM.

And the TGI (HL-60(TB) leukemia)?
The TGI was 41.3 µM and 35.1 µM.

And the TGI (HOP-62 NSCLC)?
Its TGI is 33.2 µM and 32.6 µM.

And the TGI (HOP-92 NSCLC)?
Its TGI is 30.9 µM and 39.4 µM.

And the TGI (HS 578T breast)?
The TGI was 39.4 µM and 35.9 µM.

And the TGI (HT29 colon)?
The TGI was 30.8 µM and 29.5 µM.

And the TGI (IGROV1 ovarian)?
The TGI was 75 µM and > 100 µM.

And the TGI (K-562 leukemia)?
The TGI was 64.6 µM and 62.2 µM.

And the TGI (KM12 colon)?
Its TGI is 30.3 µM.

And the TGI (LOX IMVI melanoma)?
Its TGI is 30.5 µM and 29 µM.

What about the TGI (M14 melanoma) of the same compound?
Its TGI is 28.6 µM and 32.5 µM.

What about the TGI (MALME-3M melanoma) of the same compound?
The TGI was 29 µM and 32.8 µM.

What about the TGI (MCF7 breast) of the same compound?
Its TGI is 27.2 µM and 25.7 µM.

And the GI50 (MDA-MB-231 breast)?
Its GI50 is 7.51 µM and 2.75 µM.

What about the TGI (MDA-MB-231 breast) of the same compound?
Its TGI is 20.1 µM and 12.6 µM.

What about the TGI (MDA-MB-435) of the same compound?
Its TGI is 33.8 µM and 32.1 µM.

What about the TGI (MDA-N) of the same compound?
The TGI was 29.3 µM and 33.1 µM.

And the TGI (MOLT-4 leukemia)?
The TGI was 38.9 µM and 45 µM.

What about the TGI (NCI-H226 lung) of the same compound?
Its TGI is 37.7 µM and 37.2 µM.

What about the TGI (NCI-H23 lung) of the same compound?
The TGI was 29.1 µM and 30 µM.

What about the TGI (NCI-H460 lung) of the same compound?
The TGI was > 100 µM and 43.8 µM.

What about the TGI (NCI-H522 lung) of the same compound?
Its TGI is 30.9 µM and 30.5 µM.

And the GI50 (NCI/ADR-RES ovarian)?
The GI50 was 24 µM and > 100 µM.

What about the TGI (NCI/ADR-RES ovarian) of the same compound?
The TGI was greater than 100 µM.

What about the TGI (OVCAR-3 ovarian) of the same compound?
Its TGI is 97.6 µM and > 100 µM.

What about the TGI (OVCAR-4 ovarian) of the same compound?
The TGI was 34.3 µM and 29.8 µM.

And the TGI (OVCAR-5 ovarian)?
Its TGI is 31.4 µM and 42.8 µM.

And the TGI (OVCAR-8 ovarian)?
The TGI was 40.7 µM and 42.8 µM.

And the TGI (PC-3 prostate)?
The TGI was 27.6 µM and 29.5 µM.

And the TGI (RPMI-8226 leukemia)?
The TGI was > 100 µM and 42 µM.

And the TGI (RXF 393 renal)?
The TGI was 37 µM and 40.7 µM.

And the TGI (SF-268 CNS)?
Its TGI is 31.2 µM and 34.7 µM.

What about the TGI (SF-295 CNS) of the same compound?
The TGI was 34.8 µM and 32.2 µM.

And the TGI (SK-MEL-2 melanoma)?
Its TGI is 31.8 µM and 34.7 µM.

And the TGI (SK-MEL-28 melanoma)?
The TGI was 27.8 µM and 30.5 µM.

And the TGI (SK-MEL-5 melanoma)?
Its TGI is 31.8 µM and 32.5 µM.

And the TGI (SK-OV-3 ovarian)?
Its TGI is 35.9 µM and 36.7 µM.

What about the TGI (SN12C renal) of the same compound?
Its TGI is 27.1 µM and 31.2 µM.

And the TGI (SNB-19 CNS)?
Its TGI is 31.2 µM and 27.2 µM.

And the TGI (SNB-75 CNS)?
The TGI was 30 µM and 30.4 µM.

What about the TGI (SR leukemia) of the same compound?
The TGI was 32 µM and 24.9 µM.

And the TGI (SW-620 colon)?
Its TGI is 39.5 µM and 48.7 µM.

What about the TGI (T-47D breast) of the same compound?
Its TGI is > 100 µM and 54.2 µM.

What about the TGI (U251 CNS) of the same compound?
The TGI was 33.3 µM and 33.8 µM.

And the TGI (UACC-257 melanoma)?
Its TGI is 27.4 µM and 29.7 µM.

What about the TGI (UACC-62 melanoma) of the same compound?
Its TGI is 32 µM and 32.5 µM.

What about the TGI (UO-31 renal) of the same compound?
Its TGI is 26.5 µM and 36 µM.

`O=C(Nc1ccc([N+](=O)[O-])cc1Cl)c1cccc([N+](=O)[O-])c1O` was tested. Which TGI (A498 renal) did it give?
The TGI was 3.66 µM.

What about the TGI (A549 NSCLC) of the same compound?
Its TGI is 7.31 µM.

What about the TGI (ACHN renal) of the same compound?
Its TGI is 48.1 µM.

What about the TGI (CAKI-1 renal) of the same compound?
Its TGI is 5.21 µM.

What about the TGI (CCRF-CEM leukemia) of the same compound?
Its TGI is greater than 100 µM.

And the TGI (EKVX NSCLC)?
The TGI was 6.54 µM.

And the TGI (HCC-2998 colon)?
Its TGI is 20.9 µM.

What about the TGI (HL-60(TB) leukemia) of the same compound?
The TGI was 5.43 µM.

What about the TGI (HT29 colon) of the same compound?
Its TGI is 79.7 µM.

What about the TGI (K-562 leukemia) of the same compound?
Its TGI is 12.5 µM.

What about the TGI (KM12 colon) of the same compound?
The TGI was 15.3 µM.

And the TGI (KM20L2 colon)?
The TGI was 10.2 µM.

And the TGI (LOX IMVI melanoma)?
Its TGI is 14.5 µM.

And the TGI (LXFL 529 NSCLC)?
The TGI was 13.6 µM.

What about the TGI (MALME-3M melanoma) of the same compound?
The TGI was 4.73 µM.

And the TGI (MOLT-4 leukemia)?
The TGI was 28.3 µM.

What about the TGI (NCI-H226 lung) of the same compound?
The TGI was 9.31 µM.

And the TGI (NCI-H23 lung)?
Its TGI is 4.01 µM.

And the TGI (NCI-H460 lung)?
Its TGI is 13.3 µM.

What about the TGI (NCI-H522 lung) of the same compound?
The TGI was 4.32 µM.

What about the TGI (OVCAR-4 ovarian) of the same compound?
The TGI was 45.3 µM.

And the TGI (OVCAR-5 ovarian)?
Its TGI is greater than 100 µM.

What about the TGI (RPMI-8226 leukemia) of the same compound?
Its TGI is 5.78 µM.

What about the TGI (SF-268 CNS) of the same compound?
Its TGI is 27.3 µM.

And the TGI (SF-295 CNS)?
The TGI was 6.26 µM.

What about the TGI (SF-539 CNS) of the same compound?
Its TGI is 10.9 µM.

What about the TGI (SK-MEL-2 melanoma) of the same compound?
The TGI was 6.1 µM.

What about the TGI (SK-MEL-28 melanoma) of the same compound?
Its TGI is 19.4 µM.

And the TGI (SN12C renal)?
The TGI was 8.09 µM.

What about the TGI (SNB-19 CNS) of the same compound?
The TGI was greater than 100 µM.

What about the TGI (SNB-78 CNS) of the same compound?
The TGI was 9.75 µM.

And the TGI (SR leukemia)?
Its TGI is 18.9 µM.

What about the TGI (SW-620 colon) of the same compound?
The TGI was greater than 100 µM.

And the TGI (U251 CNS)?
Its TGI is greater than 100 µM.

What about the TGI (UACC-257 melanoma) of the same compound?
Its TGI is 6.95 µM.

And the TGI (UO-31 renal)?
Its TGI is 5.58 µM.
